# Laboratory results from patent US9198907B2, “Combinations of a HCV inhibitor such as bicyclic pyrrole derivatives and a therapeutic agent” (PTC Therapeutics, Inc., priority 2009, dated 2015).
# Test system: HCV replicon RNA in replicon cells
# Test: Replicon RNA response to antiviral agent(s), replicon RNA level by real time PCR (Taqman assay)
# Assay type: cell-based
# Experimental: Replicon cells were seeded at ˜5000 cells/well in 96-well collagen I-coated Biocoat plates (Becton Dickinson). At 24 hrs post-seeding, a series of replicon cells were treated with a HCV protease inhibitor and a HCV inhibitor. The final concentration of DMSO was 0.5%, fetal bovine serum was 10%, and G418 (an aminoglycoside used as a selective agent) was 500 μg/mL.
# To each concentration of Compound 10p, HCV inhibitor Compound 22 was titrated. After 3 days, the cells were washed with PBS and lysed in 1× Cell Lysis Buffer (Ambion cat #8721).
# The replicon RNA level was measured using real time PCR (Taqman assay). The ampicon was located in NS5b. The PCR primers used were: 5B.2F, ATGGACAGGCGCCCTGA (SEQ ID NO: 1); 5B.2R, […] (SEQ ID NO: 2); the probe sequence was FAM-labeled CACGCCATGCGCTGCGG (SEQ ID NO: 3). GAPDH RNA was used as endogenous control and was amplified in the same reaction as NS5b (multiplex PCR) using primers and VIC-labeled probe recommended by the manufacturer (PE Applied Biosystem). The real-time RT-PCR reactions were run on ABI PRISM 7900HT Sequence Detection System using the following program: 48° C. for 30 min, 95° C. for 10 min, 40 cycles of 95° C. for 15 sec, 60° C. for 1 min. The ΔCT values (CT5B-CTGAPDH) were plotted against test compound concentration and fitted to the sigmoid dose response model using Graphpad PRISM software (Graphpad Software Inc.). The half maximal inhibitory concentration (IC50) is the concentration necessary to achieve ΔCT=1 over the projected baseline. The 90% maximal inhibitory concentration (IC90) is the concentration necessary to achieve ΔCT=3.2 over the baseline. Alternatively, to quantitate the absolute amount of replicon RNA, a standard curve was established by including serially diluted T7 transcripts of replicon RNA in the Taqman assay. All Taqman reagents were from PE Applied Biosystem.
SMILES,"relative inhibition (logarithmic scale) of replicon RNA (combination: Compound 22 0.045 μM + Cpd 10p 0.15 μM, 3 days)","relative inhibition (logarithmic scale) of replicon RNA (combination: Compound 22 0.045 μM + Cpd 10p 1.2 μM, 3 days)","relative inhibition (logarithmic scale) of replicon RNA (combination: Compound 22 0.405 μM + Cpd 10p 0.15 μM, 3 days)","relative inhibition (logarithmic scale) of replicon RNA (combination: Compound 22 0.405 μM + Cpd 10p 1.2 μM, 3 days)","relative inhibition (logarithmic scale) of replicon RNA (Cpd 10p 0.15 μM, Compound 22 0 μM, replicon cells treated 3 days)","relative inhibition (logarithmic scale) of replicon RNA (Cpd 10p 1.2 μM, Compound 22 0 μM, replicon cells treated 3 days)"
"COc1cnc2c(c1)c(C#N)c(-c1ccc(S(=O)(=O)N[C@@H](C)C(F)(F)F)cn1)n2C1CCC1 [Cpd 22, 6-(3-cyano-1-cyclobutyl-5-methoxy-1H-pyrrolo[2,3-b]pyridin-2-yl)-N-[(2S)-1,1,1-trifluoropropan-2-yl]pyridine-3-sulfonamide]",−1.09,−1.77,−1.45,−1.91,,
"CC(C)(C)NC(=O)N[C@H](C(=O)N1C[C@H]2[C@@H]([C@H]1C(=O)NC(CC1CCC1)C(=O)C(N)=O)C2(C)C)C(C)(C)C (stereo partly drawn) [Cpd 10p, (1R,2S,5S)-N-(4-amino-1-cyclobutyl-3,4-dioxobutan-2-yl)-3-((S)-2-(3-tert-butylureido)-3,3-dimethylbutanoyl)-6,6-dimethyl-3-azabicyclo[3.1.0]hexane-2-carboxamide, reference compound]",,,,,−0.74,−1.72
